Among the data in patent US8829029B2, “Dual modulators of 5HT2A and D3 receptors” (Hoffmann-La Roche Inc., priority 2008, dated 2014) are Ki values, retold here.

Molecules are shown by their SMILES.

Assay [1] concerns the target human 5-HT2A serotonin receptor (Homo sapiens (Human), UniProt P28223). Kind of assay: Radioligand binding ([3H]-ketanserin) to cloned human 5-HT2A receptor expressed in HEK-293 EBNA cells. To be noted: membranes of transfected HEK-293 EBNA cells, 1.1 nM [3H]-ketanserin, 1 h at RT. The procedure, abridged:
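Membranes from transiently transfected HEK-293 EBNA cells incubated 1 h at RT with 1.1 nM [3H]-ketanserin (5-HT2A, 15 μg protein/well, Tris/MgCl2/EGTA pH 7.4) or 0.5 nM [3H]-spiperone (D3, 7.5 μg/well, Tris/NaCl/MgCl2/KCl/CaCl2 pH 7.4) plus test compound at 10 μM-0.1 nM. Nonspecific binding with 10 μM spiperone; filtration, Ki via Cheng-Prusoff.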

The target in assay [2] is human D3 dopamine receptor (Homo sapiens (Human), UniProt P35462). The assay is described as follows: Radioligand binding ([3H]-spiperone) to cloned human D3 receptor expressed in HEK-293 EBNA cells. To be noted: membranes of transfected HEK-293 EBNA cells, 0.5 nM [3H]-spiperone, 1 h at RT. The method, boiled down:
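Membranes from HEK-293 EBNA cells transiently transfected with human D3 receptor, incubated 1 h at RT with ~0.5 nM [3H]-spiperone and ten compound concentrations (10 μM-0.1 nM); nonspecific binding with 10 μM spiperone. Filtered, scintillation counted; IC50 from four-parameter fit, Ki via Cheng-Prusoff using saturation Kd.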

human D3 dopamine receptor, sequence (P35462 whole entry): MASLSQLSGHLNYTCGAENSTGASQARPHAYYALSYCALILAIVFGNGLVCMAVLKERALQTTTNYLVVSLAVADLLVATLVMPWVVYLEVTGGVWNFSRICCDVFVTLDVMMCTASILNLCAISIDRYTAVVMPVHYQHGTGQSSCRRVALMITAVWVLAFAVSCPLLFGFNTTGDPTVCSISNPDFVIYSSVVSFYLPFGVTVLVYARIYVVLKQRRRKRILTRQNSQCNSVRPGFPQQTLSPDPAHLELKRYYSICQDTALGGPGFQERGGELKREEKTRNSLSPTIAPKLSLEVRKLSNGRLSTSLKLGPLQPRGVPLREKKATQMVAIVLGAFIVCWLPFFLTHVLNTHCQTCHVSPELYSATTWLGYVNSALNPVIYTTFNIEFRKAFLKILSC

As for `COc1ccc(S(=O)(=O)N[C@H]2CC[C@H](CCN3CCC(c4noc5cc(F)ccc45)CC3)CC2)cc1` [Example 49, N-trans(4-{2-[4-(6-Fluoro-benzo[d]isoxazol-3-yl)-piperidin-1-yl]-ethyl}-cyclohexyl)-4-methoxy-benzenesulfonamide], the Ki amounted to 4.39 nM in assay [1] and 3.72 nM in assay [2].
The matching figures for `N#CCC(=O)N[C@H]1CC[C@H](CCN2CCC(c3noc4cc(Cl)ccc34)CC2)CC1` [Example 51, N-trans-(4-{2-[4-(6-Chloro-benzo[d]isoxazol-3-yl)-piperidin-1-yl]-ethyl}-cyclohexyl)-2-cyano-acetamide]: 23.7 nM and 8.19 nM.
With `N#CCCC(=O)N[C@H]1CC[C@H](CCN2CCC(c3noc4cc(Cl)ccc34)CC2)CC1` [Example 52, N-trans-(4-{2-[4-(6-Chloro-benzo[d]isoxazol-3-yl)-piperidin-1-yl]-ethyl}-cyclohexyl)-3-cyano-propionamide], the Ki in assay [1] was 15.6 nM; in assay [2], 8.77 nM.
On the same counts, the results for `O=C(C[C@H]1CCCO1)N[C@H]1CC[C@H](CCN2CCC(c3noc4cc(Cl)ccc34)CC2)CC1` [Example 53, N-trans-(4-{2-[4-(6-Chloro-benzo[d]isoxazol-3-yl)-piperidin-1-yl]-ethyl}-cyclohexyl)-2-(R)-tetrahydro-furan-2-yl-acetamide] are 6.19 nM and 14.4 nM.
Turning to `O=C(CC1CC1)N[C@H]1CC[C@H](CCN2CCC(c3noc4cc(Cl)ccc34)CC2)CC1` [Example 54, N-trans-(4-{2-[4-(6-Chloro-benzo[d]isoxazol-3-yl)-piperidin-1-yl]-ethyl}-cyclohexyl)-2-cyclopropyl-acetamide], the figures for the inhibition constant (Ki) in assay [1] and in assay [2] were 13.1 nM and 3.21 nM, respectively.
On the same counts, the results for `O=C(CO)N[C@H]1CC[C@H](CCN2CCC(c3noc4cc(Cl)ccc34)CC2)CC1` [Example 55, N-trans-(4-{2-[4-(6-Chloro-benzo[d]isoxazol-3-yl)-piperidin-1-yl]-ethyl}-cyclohexyl)-2-hydroxy-acetamide] are 15 nM and 16.8 nM.
On the same counts, the results for `CS(=O)(=O)CC(=O)N[C@H]1CC[C@H](CCN2CCC(c3noc4cc(Cl)ccc34)CC2)CC1` [Example 56, N-trans-(4-{2-[4-(6-Chloro-benzo[d]isoxazol-3-yl)-piperidin-1-yl]-ethyl}-cyclohexyl)-2-methanesulfonyl-acetamide] are 15.2 nM and 14.8 nM.
`O=C(CC1OCCCO1)N[C@H]1CC[C@H](CCN2CCC(c3noc4cc(Cl)ccc34)CC2)CC1` [Example 57, N-trans-(4-{2-[4-(6-Chloro-benzo[d]isoxazol-3-yl)-piperidin-1-yl]-ethyl}-cyclohexyl)-2-[1,3]dioxan-2-yl-acetamide]: the Ki worked out at 17.6 nM in assay [1] and 6.13 nM in assay [2].
The matching figures for `CO[C@H]1CC[C@H](CC(=O)N[C@H]2CC[C@H](CCN3CCC(c4noc5ccc(Cl)cc45)CC3)CC2)CC1` [Example 58, N-trans-(4-{2-[4-(5-Chloro-benzo[d]isoxazol-3-yl)-piperidin-1-yl]-ethyl}-cyclohexyl)-2-(4-methoxy-cyclohexyl)-acetamide]: 24.7 nM and 8.38 nM.
The matching figures for `CS(=O)(=O)N[C@H]1CC[C@H](CCN2CCC(c3noc4ccc(F)cc34)CC2)CC1` [Example 59, N-trans-(4-{2-[4-(5-Fluoro-benzo[d]isoxazol-3-yl)-piperidin-1-yl]-ethyl}-cyclohexyl)-methanesulfonamide]: 27.5 nM and 7.98 nM.
On the same counts, the results for `COCCC(=O)N[C@H]1CC[C@H](CCN2CCC(c3noc4cc(Cl)c(F)cc34)CC2)CC1` [Example 60, N-trans-(4-{2-[4-(6-Chloro-5-fluoro-benzo[d]isoxazol-3-yl)-piperidin-1-yl]-ethyl}-cyclohexyl)-3-methoxy-propionamide] are 44 nM and 13.5 nM.

What is called Ki is a measure of affinity in units of concentration, obtained from inhibition or displacement.
